The experiment addresses T1, Sirt6 (Homo sapiens, UniProt Q8N6T7).
T1 construct: purchased CycLex CY-1156V2
The experiment can be described thus: Measurement of Sirt6 Activity (CycLex Sirt6 Deacetylase Fluorometric Assay Kit). Particulars: compound at 10 μM; fluorescence relative to the group without compound treatment (positive control group). It counts as biochemical. An outline of the steps:
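Recombinant Sirt6 with fluoro-labelled acetyl-lysine peptide, NAD and lysylendopeptidase developer, compound added from 10× stock in PBS; 1 h at room temperature. Fluorescence read at ex 490/em 530 nm; activation expressed as fluorescence ratio relative to enzyme without compound.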

This note sets out measurements from patent publication US20220235011A1, “PHTHALAZINONE COMPOUNDS AND USE THEREOF” (ST PHARM CO., LTD., priority 2019, published 2022).

Structures can show the parent of a compound that is named as a salt.

T1 sequence (Q8N6T7 whole entry): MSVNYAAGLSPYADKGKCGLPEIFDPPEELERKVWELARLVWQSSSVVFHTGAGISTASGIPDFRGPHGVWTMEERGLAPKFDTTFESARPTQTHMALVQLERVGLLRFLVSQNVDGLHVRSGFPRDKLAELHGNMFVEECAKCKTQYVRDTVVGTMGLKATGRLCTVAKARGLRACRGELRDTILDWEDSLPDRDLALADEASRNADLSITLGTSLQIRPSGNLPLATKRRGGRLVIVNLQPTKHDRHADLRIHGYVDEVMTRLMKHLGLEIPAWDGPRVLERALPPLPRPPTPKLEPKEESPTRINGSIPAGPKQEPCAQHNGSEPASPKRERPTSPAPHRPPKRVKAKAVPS

For `CCN(CC)S(=O)(=O)c1cccc(-c2nn(-c3ccc(F)cc3F)c(=O)c3ccccc23)c1` [Example 217, 3-(3-(2,4-Difluorophenyl)-4-oxo-3,4-dihydrophthalazin-1-yl)-N,N-diethylbenzenesulfonamide], the “Sirt6 Activity (% activity, 10 μM)” value amounted to 185.10 % activity.

On to `C/[N+]([O-])=C/c1cccc(-c2nn(-c3ccc(F)cc3)c(=O)c3ccccc23)c1` [Example 15, (Z)-1-(3-(3-(4-Fluorophenyl)-4-oxo-3,4-dihydrophthalazin-1-yl)phenyl)-N-methylmethanimine Oxide], for which the “Sirt6 Activity (% activity, 10 μM)” value was found to be 231 % activity.

With `CC(C)/[N+]([O-])=C/c1ccc(-c2nn(-c3ccc(F)cc3)c(=O)c3ccccc23)o1` [Example 48, (Z)-1-(5-(3-(4-Fluorophenyl)-4-oxo-3,4-dihydrophthalazin-1-yl)furan-2-yl)-N-isopropylmethanimine Oxide], the “Sirt6 Activity (% activity, 10 μM)” value came out at 107 % activity.

With `CC(C)/[N+]([O-])=C/c1cccc(-c2nn(-c3ccc(-c4ccccc4)cc3)c(=O)c3ccccc23)c1` [Example 85, (Z)-1-(3-(3-([1,1′-Biphenyl]-4-yl)-4-oxo-3,4-dihydrophthalazin-1-yl)phenyl)-N-isopropylmethanimine Oxide], the “Sirt6 Activity (% activity, 10 μM)” value was found to be 118 % activity.

As for `CC(C)(C(=O)N1CCCC1)c1cccc(-c2nn(-c3ccc(F)cc3F)c(=O)c3ccccc23)c1` [Example 177, 2-(2,4-Difluorophenyl)-4-(3-(2-methyl-1-oxo-1-(pyrrolidin-1-yl)propan-2-yl)phenyl)phthalazin-1(2H)-one], the “Sirt6 Activity (% activity, 10 μM)” value was determined as 241.6 % activity.

As to `CC(C)(C(=O)O)c1cccc(-c2nn(-c3ccc(F)cc3)c(=O)c3ccccc23)c1` [Example 152, 2-(3-(3-(4-Fluorophenyl)-4-oxo-3,4-dihydrophthalazin-1-yl)phenyl)-2-methylpropanoic Acid], the “Sirt6 Activity (% activity, 10 μM)” value came to 195.5 % activity.

For the compound `CNS(=O)(=O)N(C)c1cccc(-c2nn(-c3ccc(F)cc3)c(=O)c3ccccc23)c1` [Example 80, N-(3-(3-(4-Fluorophenyl)-4-oxo-3,4-dihydrophthalazin-1-yl)phenyl)-N-methyl-methyl Sulfamoylamide], the “Sirt6 Activity (% activity, 10 μM)” value amounted to 216 % activity.

For the compound `CCS(=O)(=O)Nc1cncc(-c2nn(-c3ccc(F)cc3)c(=O)c3ccccc23)c1` [Example 82, N-(5-(3-(4-Fluorophenyl)-4-oxo-3,4-dihydrophthalazin-1-yl)pyridin-3-yl)ethanesulfonamide], the “Sirt6 Activity (% activity, 10 μM)” value came out at 111 % activity.

For the compound `O=c1c2ccccc2c(-c2cccc(-c3nnn[nH]3)c2)nn1-c1ccc(F)cc1` [Example 81, 4-(3-(1H-Tetrazol-5-yl)phenyl)-2-(4-fluorophenyl)phthalazin-1(2H)-one], the “Sirt6 Activity (% activity, 10 μM)” value amounted to 115 % activity.

In the case of `O=c1c2ccccc2c(-c2cccc(NS(=O)(=O)C3CC3)c2)nn1-c1ccc(F)cc1` [Example 71, N-(3-(3-(4-Fluorophenyl)-4-oxo-3,4-dihydrophthalazin-1-yl)phenyl)cyclopropane Sulfonamide], the “Sirt6 Activity (% activity, 10 μM)” value was found to be 150 % activity.

Turning to `CC(C)(C#N)c1cccc(-c2nn(-c3ccc(F)cc3F)c(=O)c3ccccc23)c1` [Example 168, 2-(3-(3-(2,4-Difluorophenyl)-4-oxo-3,4-dihydrophthalazin-1-yl)phenyl)-2-methylpropanenitrile], the “Sirt6 Activity (% activity, 10 μM)” value came to 155.7 % activity.

`C/[N+]([O-])=C/c1ccc(F)c(-c2nn(-c3ccc(F)cc3)c(=O)c3ccccc23)c1` [Example 55, (Z)-1-(4-Fluoro-3-(3-(4-fluorophenyl)-4-oxo-3,4-dihydrophthalazin-1-yl)phenyl)-N-methylmethanimine Oxide]: the “Sirt6 Activity (% activity, 10 μM)” value was found to be 151 % activity.

On to `COC(=O)NS(=O)(=O)Nc1cccc(-c2nn(-c3ccc(F)cc3)c(=O)c3ccccc23)c1` [Example 20, Methyl (N-(3-(3-(4-fluorophenyl)-4-oxo-3,4-dihydrophthalazin-1-yl)phenyl)sulfamoyl) Carbamate], for which the “Sirt6 Activity (% activity, 10 μM)” value stood at 211 % activity.

As to `O=c1c2ccccc2c(N2CCCNCC2)nn1-c1ccc(F)cc1F` [Example 184, 4-(1,4-Diazepan-1-yl)-2-(2,4-difluorophenyl)phthalazin-1(2H)-one-hydrochloride], the “Sirt6 Activity (% activity, 10 μM)” value was found to be 176.80 % activity.

`C/[N+]([O-])=C/c1cccc(-c2nn(-c3ccc(F)cc3F)c(=O)c3ccccc23)c1` [Example 21, (Z)-1-(3-(3-(2,4-Difluorophenyl)-4-oxo-3,4-dihydrophthalazin-1-yl)phenyl)-N-methyl methanimine Oxide]: the “Sirt6 Activity (% activity, 10 μM)” value came to 167 % activity.

For `CN(C)S(=O)(=O)N(C)c1cccc(-c2nn(-c3ccc(F)cc3)c(=O)c3ccccc23)c1` [Example 75, N-(3-(3-(4-Fluorophenyl)-4-oxo-3,4-dihydrophthalazin-1-yl)phenyl)-N-methyl-dimethyl Sulfamoylamide], the “Sirt6 Activity (% activity, 10 μM)” value amounted to 139 % activity.

In the case of `O=c1c2ccccc2c(N2CCCCC(O)C2)nn1-c1ccc(F)cc1F` (stereo not drawn) [Example 190, 2-(2,4-Difluorophenyl)-4-(3-hydroxyazepan-1-yl)phthalazin-1(2H)-one], the “Sirt6 Activity (% activity, 10 μM)” value was 332.60 % activity.

Take `CCS(=O)(=O)N[C@H]1CCCN(c2nn(-c3ccc(F)cc3)c(=O)c3ccccc23)C1` [Example 138, (S)—N-(1-(3-(4-Fluorophenyl)-4-oxo-3,4-dihydrophthalazin-1-yl)piperidin-3-yl)ethanesulfonamide]: the “Sirt6 Activity (% activity, 10 μM)” value amounted to 175.98 % activity.

Turning to `N#Cc1cccc(-c2nn(-c3ccc(F)cc3)c(=O)c3ccccc23)c1` [Example 130, 3-(3-(4-Fluorophenyl)-4-oxo-3,4-dihydrophthalazin-1-yl)benzonitrile], the “Sirt6 Activity (% activity, 10 μM)” value is 120.16 % activity.

Regarding `CN(C)S(=O)(=O)Nc1cc(-c2nn(-c3ccccc3)c(=O)c3ccccc23)ccc1Cl` [Example 19, N-(3-(3-(Phenyl)-4-oxo-3,4-dihydrophthalazin-1-yl)-6-chlorophenyl)dimethyl Sulfamoylamide], the “Sirt6 Activity (% activity, 10 μM)” value worked out at 120 % activity.

Regarding `CCNS(=O)(=O)c1cccc(-c2nn(-c3ccc(F)cc3)c(=O)c3ccccc23)c1` [Example 87, N-Ethyl-3-(3-(4-fluorophenyl)-4-oxo-3,4-dihydrophthalazin-1-yl)benzenesulfonamide], the “Sirt6 Activity (% activity, 10 μM)” value was 226 % activity.

With `CN(c1cccc(-c2nn(-c3ccc(F)cc3)c(=O)c3ccccc23)c1)S(=O)(=O)C(F)(F)F` [Example 78, 1,1,1-Trifluoro-N-(3-(3-(4-fluorophenyl)-4-oxo-3,4-dihydrophthalazin-1-yl)phenyl)-N-methylmethane Sulfonamide], the “Sirt6 Activity (% activity, 10 μM)” value stood at 122 % activity.

On to `CC(C)(C(=O)O)c1cccc(-c2nn(-c3ccc(Cl)cc3F)c(=O)c3ccccc23)c1` [Example 201, 2-(3-(3-(4-Chloro-2-fluorophenyl)-4-oxo-3,4-dihydrophthalazin-1-yl)phenyl)-2-methylpropanoic Acid], for which the “Sirt6 Activity (% activity, 10 μM)” value is on record as 204.58 % activity.

As to `Cl.NC1CCCCN(c2nn(C3CCCCC3)c(=O)c3ccccc23)C1` (stereo not drawn) [Example 143, 4-(3-Aminoazepan-1-yl)-2-cyclohexyl phthalazin-1(2H)-one-hydrochloride], the “Sirt6 Activity (% activity, 10 μM)” value came out at 238.3 % activity.

With `C/[N+]([O-])=C\c1ccc(-c2nn(-c3ccc(F)cc3)c(=O)c3ccccc23)c(F)c1` [Example 38, (E)-1-(3-Fluoro-4-(3-(4-fluorophenyl)-4-oxo-3,4-dihydrophthalazin-1-yl)phenyl)-N-methylmethanimine Oxide], the “Sirt6 Activity (% activity, 10 μM)” value is given as 143 % activity.

With `CNS(=O)(=O)c1cccc(-c2nn(-c3ccc(F)cc3F)c(=O)c3ccc(F)cc23)c1` [Example 121, 3-(3-(2,4-Difluorophenyl)-7-fluoro-4-oxo-3,4-dihydrophthalazin-1-yl)-N-methylbenzenesulfonamide], the “Sirt6 Activity (% activity, 10 μM)” value is 157 % activity.

As for `O=c1c2ccccc2c(-c2ccc(Cl)c([N+](=O)[O-])c2)nn1-c1ccc(F)cc1` [Example 59, 4-(4-Chloro-3-nitrophenyl)-2-(4-fluorophenyl)phthalazin-1(2H)-one], the “Sirt6 Activity (% activity, 10 μM)” value is 109 % activity.

Regarding `CC(C)(C(=O)O)C1CN(c2nn(-c3ccc(F)cc3F)c(=O)c3ccccc23)CCN1` (stereo not drawn) [Example 219, 2-(4-(3-(2,4-Difluorophenyl)-4-oxo-3,4-dihydrophthalazin-1-yl)piperazin-2-yl)-2-methylpropanoic Acid], the “Sirt6 Activity (% activity, 10 μM)” value worked out at 114.60 % activity.

In the case of `NS(=O)(=O)c1cccc(-c2nn(C3CCCCC3)c(=O)c3ccccc23)c1` [Example 142, 3-(3-Cyclohexyl-4-oxo-3,4-dihydrophthalazin-1-yl)benzenesulfonamide], the “Sirt6 Activity (% activity, 10 μM)” value stood at 162.3 % activity.

For “N-(3-(4-Oxo-3-(tetrahydro-2H-pyran-4-yl)-3,4-dihydrophthalazin-1-yl)phenyl)ethanesulfonamide [Example 151]”, the “Sirt6 Activity (% activity, 10 μM)” value was found to be 145.64 % activity.

With `Cl.NC1CCCCN(c2nn(C3CCC3)c(=O)c3ccccc23)C1` (stereo not drawn) [Example 172, 4-(3-Aminoazepan-1-yl)-2-cyclobutyl phthalazin-1(2H)-one-hydrochloride], the “Sirt6 Activity (% activity, 10 μM)” value was 99.5 % activity.

Take `Cl.NC1CCCN(c2nn(-c3ccc(F)cc3)c(=O)c3ccccc23)C1` (stereo not drawn) [Example 134, 4-(3-Aminopiperidin-1-yl)-2-(4-fluorophenyl)phthalazin-1(2H)-one-hydrochloride]: the “Sirt6 Activity (% activity, 10 μM)” value is 167.53 % activity.

Consider `CS(=O)(=O)c1cccc(-c2nn(-c3ccc(F)cc3F)c(=O)c3ccc(F)cc23)c1` [Example 119, 2-(2,4-Difluorophenyl)-6-fluoro-4-(3-(methylsulfonyl)phenyl)phthalazin-1(2H)-one], for which the “Sirt6 Activity (% activity, 10 μM)” value is on record as 166 % activity.
